Reference: the supplement of paper PMC10883282
± gives the standard deviation of the averaged measurements.

System: HT1080
Test: relative viability vs DMSO control (72 h) (fraction); higher = more viable cells
Outline: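 A 5 µM positive control and 0.1% DMSO vehicle ran alongside sarcoma cell lines seeded in 384-well plates to reach 80–90% confluence. Serially diluted compound, 2.5 µl from source plates of 10 mM to 0.0002 mM, was added after 24 h, and the plates were held 72 h at 37 °C, 5% CO2. Relative viability was worked out from ATPLite readings as percent growth averaged over up to triplicate wells. The values were rescaled so that 1 is full and 0 is none.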

SMILES	relative viability (0.00017 µM)	relative viability (0.00051 µM)	relative viability (0.00152 µM)	relative viability (0.00457 µM)	relative viability (0.01372 µM)	relative viability (0.04115 µM)	relative viability (0.1235 µM)	relative viability (0.3704 µM)	relative viability (1.111 µM)	relative viability (3.333 µM)	relative viability (10 µM)	relative viability (2 pM)	relative viability (5 pM)	relative viability (15 pM)	relative viability (50 pM)	relative viability (0.00014 µM)	relative viability (0.00041 µM)	relative viability (0.0012 µM)	relative viability (0.0037 µM)	relative viability (0.011 µM)	relative viability (200 fM)	relative viability (600 fM)
CC(C)NC(=O)C1CCC(n2c(NC(=O)c3ccc(F)cc3)nc3ccc(CN4CCC(C(C)(C)O)CC4)cc32)CC1 (stereo not given) [Belizatinib]	1.079 ± 0.0088	1.09 ± 0.036	1.05 ± 0.018	1.08 ± 0.057	1.07 ± 0.052	1.08 ± 0.021	1.062 ± 0.0014	1.06 ± 0.069	1.03 ± 0.056	0.866 ± 0.014	0.4946 ± 0.0036	–	–	–	–	–	–	–	–	–	–	–
C=CC(=O)N1CCC[C@@H](n2nc(-c3ccc(Oc4ccccc4)cc3)c3c(N)ncnc32)C1 [Ibrutinib]	1.07 ± 0.019	1.11 ± 0.019	1.1 ± 0.012	1.05 ± 0.012	1.1 ± 0.022	1.06 ± 0.055	1.06 ± 0.015	1.07 ± 0.025	1.12 ± 0.027	1.14 ± 0.022	1.101 ± 0.0017	–	–	–	–	–	–	–	–	–	–	–
O=C(Cc1ccc(-c2ccc(OCCN3CCOCC3)cc2)cn1)NCc1ccccc1 [KX2-391]	1.07 ± 0.025	1.1 ± 0.013	1.11 ± 0.019	1.1 ± 0.033	1.06 ± 0.013	1.06 ± 0.022	0.117 ± 0.0064	0.0565 ± 0.0006	0.0434 ± 0.0068	0.0333 ± 0.0026	0.0365 ± 0.0027	–	–	–	–	–	–	–	–	–	–	–
CC(=O)Nc1cccc(-n2c(=O)n(C3CC3)c(=O)c3c(Nc4ccc(I)cc4F)n(C)c(=O)c(C)c32)c1 [Trametinib]	1.1 ± 0.022	1.119 ± 0.0055	1.039 ± 0.0014	0.981 ± 0.041	0.638 ± 0.029	0.537 ± 0.017	0.478 ± 0.032	0.377 ± 0.011	0.351 ± 0.02	0.334 ± 0.018	0.296 ± 0.014	–	–	–	–	–	–	–	–	–	–	–
COc1cc2nccc(Oc3ccc(NC(=O)Nc4cc(C)on4)c(Cl)c3)c2cc1OC [Tivozanib]	1.04 ± 0.027	1.06 ± 0.021	1.06 ± 0.032	1.07 ± 0.026	1.046 ± 0.01	1.06 ± 0.02	1.05 ± 0.019	1.07 ± 0.02	1.1 ± 0.04	1.12 ± 0.015	0.967 ± 0.021	–	–	–	–	–	–	–	–	–	–	–
COc1cc2c(cc1O)CCN[C@]21CS[C@@H]2c3c(OC(C)=O)c(C)c4c(c3[C@H](COC1=O)N1[C@@H]2[C@H]2c3c(cc(C)c(OC)c3O)C[C@@H]([C@@H]1O)N2C)OCO4 [Trabectedin]	–	–	–	–	–	–	–	–	–	–	–	1.13 ± 0.038	1.12 ± 0.048	1.09 ± 0.047	1.094 ± 0.0095	1.11 ± 0.031	1.077 ± 0.0069	0.023 ± 0.0022	0.21 ± 0.0023	0.159 ± 0.005	1.08 ± 0.032	1.14 ± 0.017
CNC(=O)c1cc(Oc2ccc(NC(=O)Nc3ccc(Cl)c(C(F)(F)F)c3)c(F)c2)ccn1 [Regorafenib]	1.1 ± 0.055	1.128 ± 0.0073	1.09 ± 0.012	1.09 ± 0.012	1.12 ± 0.028	1.11 ± 0.056	1.1 ± 0.02	1.08 ± 0.021	1.05 ± 0.014	0.952 ± 0.028	0.542 ± 0.062	–	–	–	–	–	–	–	–	–	–	–
C[C@@H]1CCN(C(=O)CC#N)C[C@@H]1N(C)c1ncnc2[nH]ccc12 [Tofacitinib]	1.06 ± 0.044	1.1 ± 0.035	1.07 ± 0.025	1.077 ± 0.0086	1.1 ± 0.022	1.08 ± 0.018	1.08 ± 0.085	1.1 ± 0.04	1.07 ± 0.012	1.03 ± 0.027	1.02 ± 0.024	–	–	–	–	–	–	–	–	–	–	–
COc1cc2c(Oc3ccc4[nH]c(C)cc4c3F)ncnc2cc1OCCCN1CCCC1 [Cediranib]	1.08 ± 0.022	1.08 ± 0.015	1.06 ± 0.011	1.095 ± 0.0091	1.1 ± 0.011	1.07 ± 0.031	1.08 ± 0.016	1.1 ± 0.015	1.1 ± 0.027	1.08 ± 0.035	1.06 ± 0.024	–	–	–	–	–	–	–	–	–	–	–
CC[C@H](Nc1ncnc2[nH]cnc12)c1nc2cccc(F)c2c(=O)n1-c1ccccc1 [Idelalisib]	1.1 ± 0.032	1.1 ± 0.025	1.07 ± 0.017	1.12 ± 0.039	1.0913 ± 0.00051	1.12 ± 0.021	1.09 ± 0.038	1.12 ± 0.051	1.07 ± 0.027	1.08 ± 0.014	1.08 ± 0.04	–	–	–	–	–	–	–	–	–	–	–
Cc1cc(Nc2ncnc3ccc(NC4=NC(C)(C)CO4)cc23)ccc1Oc1ccn2ncnc2c1 [Tucatinib]	1.06 ± 0.043	1.071 ± 0.0057	1.108 ± 0.0063	1.09 ± 0.054	1.1 ± 0.027	1.0875 ± 7.1e-05	1.08 ± 0.032	1.067 ± 0.01	1.05 ± 0.011	1.06 ± 0.026	0.948 ± 0.012	–	–	–	–	–	–	–	–	–	–	–
Cn1cc(-c2cc3c(N4CCN(c5ncc([C@@](C)(N)c6ccc(F)cc6)cn5)CC4)ncnn3c2)cn1 [Avapritinib]	0.967 ± 0.065	1.03 ± 0.019	0.98 ± 0.042	1.01 ± 0.041	1 ± 0.017	1.01 ± 0.039	1.03 ± 0.048	1.01 ± 0.013	0.908 ± 0.029	0.905 ± 0.014	0.826 ± 0.023	–	–	–	–	–	–	–	–	–	–	–
CC(C)(C)c1cc(NC(=O)Nc2ccc(-c3cn4c(n3)sc3cc(OCCN5CCOCC5)ccc34)cc2)no1 [Quizartinib]	1.12 ± 0.013	1.09 ± 0.016	1.087 ± 0.0076	1.08 ± 0.029	1.07 ± 0.014	1.11 ± 0.034	1.1 ± 0.035	1.11 ± 0.012	1.04 ± 0.042	0.907 ± 0.048	0.806 ± 0.042	–	–	–	–	–	–	–	–	–	–	–
O=C(Nc1cnn2ccc(N3CCC[C@@H]3c3cc(F)ccc3F)nc12)N1CC[C@H](O)C1 [Larotrectinib]	1.08 ± 0.042	1.05 ± 0.035	1.05 ± 0.039	1.05 ± 0.054	1.07 ± 0.038	1.06 ± 0.058	1.07 ± 0.014	1.09 ± 0.036	1.04 ± 0.028	1.06 ± 0.022	1.03 ± 0.022	–	–	–	–	–	–	–	–	–	–	–
Cc1nc(-c2cn3c(n2)-c2ccc(-c4cnn(C(C)(C)C(N)=O)c4)cc2OCC3)n(C(C)C)n1 [Taselisib]	1.016 ± 0.01	1.01 ± 0.017	1.02 ± 0.015	1.03 ± 0.056	1.02 ± 0.011	1.02 ± 0.016	1.034 ± 0.0069	1.04 ± 0.018	1.02 ± 0.052	1.01 ± 0.012	0.738 ± 0.0029	–	–	–	–	–	–	–	–	–	–	–
